# In patent US7223733B2, “Modulation of TRIP-Br function and method of treating proliferative disorders” (National University of Singapore, priority 2004, dated 2007):
# Where no end group is shown, it is not given here.
# Key:
# Type in all cases: cell-based, human
# U2OS cells [1] = test: BrdU incorporation colorimetric ELISA in U2OS cells; details: for DNA synthesis activity (BrdU incorporation): U2OS, 50 μM, between 24 h and 48 h post-treatment; for ability to incorporate BrdU with increasing concentrations: U2OS, 5, 10, 20 or 50 μM, 48 h
# Experimental: BrdU assay. U2OS cells grown in 96-well plates were exposed to either vehicle or decoy peptides. Bromodeoxyuridine (BrdU) incorporation was monitored with a colorimetric ELISA assay using a cell proliferation kit according to manufacturer's recommendations (Boehringer Mannheim).
# (§1) FIG. 4: Time-dependent and dose-dependent anti-proliferative effects of the decoy peptides. (A) Time-dependent anti-proliferative effects of the decoy peptides. U2OS cells, exposed to either vehicle (0.5% DMSO) or 50 μM decoy peptides for either 24 or 48 h, were assayed for BrdU incorporation with a colorimetric ELISA assay. Values represent the average +/− standard deviation of two independent experiments; (B) Dose-dependent anti-proliferative effects of the decoy peptides. U2OS cells, exposed to 5, 10, 20 or 50 μM of *SCR (solid line and square), *Br1 (dashed line and triangle) or *Br2 (dashed line and circle) for 48 h, were assayed for BrdU incorporation with a colorimetric ELISA assay. Values represent the average +/− standard deviation of at least two independent experiments; (C) Cell proliferation analysis. Left panel: At 0, 48 and 72 h post decoy peptide treatment, total cell number was determined electronically using a Coulter® counter. Right panel: At 72 h post-treatment, cells were harvested and stained with trypan blue for viable cell count analysis.
# U2OS cells [2] = test: Cell number (Coulter counter) and viability (trypan blue) of U2OS cells; details: for total cell number over time: 50 μM, 0, 48 and 72 h, Coulter counter; for viable cells, trypan blue manual count: 50 μM, 72 h, compared to vehicle or *SCR
# Experimental: as §1, with “Determination of cell number and viability. U2OS cells grown in 6-well dishes for 24 h were exposed to 2 ml of growth medium containing either vehicle (0.5% DMSO) or 50 μM decoy peptides for 48 or 72 h. Following treatment, the cells were washed twice with 1×PBS, harvested by trypsinization and re-suspended in 1 ml 1×PBS. 10 μl of cell suspension was taken from each sample and enumerated either electronically or manually. For electronic total cell counts, 10 μl of cell suspension was diluted in 20 ml of isoton® II buffer (Coulter®) and cell number was estimated using an electronic Coulter® counter. For manual counting of viable cells, 10 μl of cell suspension from each sample was mixed with equal volume of trypan blue stain (Sigma, 0.4% w/v in 1×PBS). The number of viable (unstained) cells was enumerated manually using a hemocytometer. FIG.” for “FIG.”
# cyclins and Cdks = test: Cell cycle protein expression profile of U2OS cells released from nocodazole arrest (Western blot); details: U2OS released from nocodazole block; for timing of cyclin E protein accumulation: 20 μM; for absolute levels of cyclin E protein: up to 24 h post-release
# Experimental: Cell synchronization and cell cycle progression analyses. U2OS cells in 6-well dishes were subjected to nocodazole treatment (75 ng/ml) for 22 h. Thereafter, the nocodazole-arrested cultures were released by washing with 1×PBS and grown in DMEM plus 10% FBS containing either vehicle (0.5% DMSO) or 20 μM decoy peptides. Cells were harvested at 4-h intervals for standard Western blot analyses. For the analysis of Geminin protein profile, mock- or cyclin E/Cdk2-transfected U2OS cells were exposed to nocodazole (75 ng/ml) at 3 h post-transfection for 22 h. Denaturing SDS-PAGE and western blotting. Proteins from whole cell lysate and IP complexes were separated using standard denaturing polyacrylamide gel electrophoresis as described previously (Hsu, S. I. H., et al. EMBO J 20, 2273-2285 (2001)). FIG. 7: Cell cycle protein expression profile and protein decay analysis. (A) Protein expression profile of U2OS cells released from nocodazole arrest in the absence or presence of decoy peptide treatment. Protein expression of various cyclins and Cdks was assessed by Western blotting using whole cell lysates from synchronized U2OS cells at 4, 8, 12, 16, 20 and 24 h after release. Coomassie-stained proteins served as loading controls; (B) U2OS cells transfected with vector backbone (vehicle) or pRc/cyclin E and pCMV/Cdk2 (1 μg each), were arrested at the G2/M boundary by exposure to nocodazole (75 ng/ml) and then released to re-enter the cell cycle. Protein expression of cyclin E and Geminin was assessed using whole cell lysates from synchronized U2OS cells at 0, 4, 8, 12, 16 and 20 h after release; (C) Protein decay analysis of Geminin expression in the absence or presence of cyclin E/Cdk2 over-expression (left panel) or in the absence or presence of decoy peptide treatment (right panel) by Western blotting (WB). Coomassie stained proteins served as the loading control (C).
# [3] = test system: caspase-3 protease activity; test: Caspase assay with Ac-DEVD-AFC in U2OS cells; details: 50 μM decoy peptides, 48 or 72 h
# Experimental: Caspase assay. Both adherent and detached cells in 6-well dishes were harvested by centrifugation at 2000 rpm for 15 min at 4° C. The resulting cell pellets were incubated in 50 μl of chilled lysis buffer (Clontech) on ice for 10 min. Cell lysates were incubated in a reaction mix containing 10 mM HEPES, 2.0 mM EDTA, 10 mM KCl, 1.5 mM MgCl2, 1.0 mM PMSF, aprotinine, pepstatin A and leupeptine (20 μM each), 6.0 mM DTT and Ac-DEVD-AFC (4.0 μg/ml). Reactions were allowed to proceed at room temperature. Fluorescence readings were taken at 15 min intervals for 1 h using a spectrofluorometer (excitation wavelength: 400 nm; emission wavelength: 505 nm).
# FIG. 6: Caspase assay. (A) Caspase 3 protease activity in U2OS cells exposed to either Eto (Etoposide) for 24 h or 50 μM decoy peptides for 48 or 72 h, were assayed using the Ac-DEVD-AFC fluorogenic substrate. […] Values represent the average +/− standard deviation of two independent experiments. Control: cells cultured in normal growth medium; Vehicle: cells cultured in the presence of 0.5% DMSO; (B) Western blot analysis of PARP cleavage. U2OS cells were exposed to either Eto (Etoposide) for 24 h or 50 μM decoy peptides for 72 h. Lane 1: Vehicle cells (cultured in the presence of 0.5% DMSO for 24 h); Lane 2: 25 μM Eto; Lane 3: 250 μM Eto; Lane 4: Vehicle (cells cultured in the presence of 0.5% DMSO for 72 h); Lane 5: *SCR; Lane 6: *Br1; Lane 7: *Br2.
sequence,measurement,setting,value
ERQIKIWFQNRRMKWKKATGCLLDDGLEGLFEDID (ERQIKIWFQNRRMKWKKATGCLLDDGLEGLFEDID-NH2) [*Br1],DNA synthesis activity (BrdU incorporation),U2OS cells [1],substantially reduced DNA synthesis activity
same,ability to incorporate BrdU with increasing concentrations,U2OS cells [1],progressively reduced ability to incorporate BrdU
same,total cell number over time,U2OS cells [2],nearly complete cessation of cell proliferation
same,"viable cells, trypan blue manual count",U2OS cells [2],significantly fewer viable cells
same,timing of cyclin E protein accumulation,cyclins and Cdks,premature accumulation of cyclin E beginning in early G1
same,absolute levels of cyclin E protein,cyclins and Cdks,dramatically up-regulated and sustained at high levels
same,caspase-3 protease activity in cell lysates,[3],indistinguishable from the baseline activity
"ERQIKIWFQNRRMKWKKGLDEDGLLLFCEGDTIAD (Peptide containing penetratin sequence from Drosophila and random peptide sequence) [*SCR, reference compound]",DNA synthesis activity (BrdU incorporation),U2OS cells [1],basal DNA synthesis rate similar to that of the vehicle-treated control cells
same,total cell number over time,U2OS cells [2],nearly identical increments in cell number over time
same,timing of cyclin E protein accumulation,cyclins and Cdks,accumulated during mid-to-late G1 between 8 h and 16 h post-release
same,caspase-3 protease activity in cell lysates,[3],indistinguishable from the baseline activity
ERQIKIWFQNRRMKWKKTGFLTDLTLDDILFADID (ERQIKIWFQNRRMKWKKTGFLTDLTLDDILFADID-NH2) [*Br2],DNA synthesis activity (BrdU incorporation),U2OS cells [1],substantially reduced DNA synthesis activity
same,ability to incorporate BrdU with increasing concentrations,U2OS cells [1],progressively reduced ability to incorporate BrdU
same,total cell number over time,U2OS cells [2],nearly complete cessation of cell proliferation
same,"viable cells, trypan blue manual count",U2OS cells [2],significantly fewer viable cells
same,timing of cyclin E protein accumulation,cyclins and Cdks,premature accumulation of cyclin E beginning in early G1
same,absolute levels of cyclin E protein,cyclins and Cdks,dramatically up-regulated and sustained at high levels
same,caspase-3 protease activity in cell lysates,[3],indistinguishable from the baseline activity
